Measured values as given in article PMC10275055, “Preventing recurrence in Sonic Hedgehog Subgroup Medulloblastoma using the OLIG2 inhibitor CT-179” (Research Square, 2023).

Tests used:
[1] = molecular target: T1, Fetal Liver Tyrosine Kinase 3 (FLT3) (Homo sapiens, UniProt P36888); assay: Kinase profiling (KINOMEscan / SelectScreen) and dose response follow-up, FLT3; type: biochemical; conditions: ATP equal to Km
T1 sequence (P36888 27-993): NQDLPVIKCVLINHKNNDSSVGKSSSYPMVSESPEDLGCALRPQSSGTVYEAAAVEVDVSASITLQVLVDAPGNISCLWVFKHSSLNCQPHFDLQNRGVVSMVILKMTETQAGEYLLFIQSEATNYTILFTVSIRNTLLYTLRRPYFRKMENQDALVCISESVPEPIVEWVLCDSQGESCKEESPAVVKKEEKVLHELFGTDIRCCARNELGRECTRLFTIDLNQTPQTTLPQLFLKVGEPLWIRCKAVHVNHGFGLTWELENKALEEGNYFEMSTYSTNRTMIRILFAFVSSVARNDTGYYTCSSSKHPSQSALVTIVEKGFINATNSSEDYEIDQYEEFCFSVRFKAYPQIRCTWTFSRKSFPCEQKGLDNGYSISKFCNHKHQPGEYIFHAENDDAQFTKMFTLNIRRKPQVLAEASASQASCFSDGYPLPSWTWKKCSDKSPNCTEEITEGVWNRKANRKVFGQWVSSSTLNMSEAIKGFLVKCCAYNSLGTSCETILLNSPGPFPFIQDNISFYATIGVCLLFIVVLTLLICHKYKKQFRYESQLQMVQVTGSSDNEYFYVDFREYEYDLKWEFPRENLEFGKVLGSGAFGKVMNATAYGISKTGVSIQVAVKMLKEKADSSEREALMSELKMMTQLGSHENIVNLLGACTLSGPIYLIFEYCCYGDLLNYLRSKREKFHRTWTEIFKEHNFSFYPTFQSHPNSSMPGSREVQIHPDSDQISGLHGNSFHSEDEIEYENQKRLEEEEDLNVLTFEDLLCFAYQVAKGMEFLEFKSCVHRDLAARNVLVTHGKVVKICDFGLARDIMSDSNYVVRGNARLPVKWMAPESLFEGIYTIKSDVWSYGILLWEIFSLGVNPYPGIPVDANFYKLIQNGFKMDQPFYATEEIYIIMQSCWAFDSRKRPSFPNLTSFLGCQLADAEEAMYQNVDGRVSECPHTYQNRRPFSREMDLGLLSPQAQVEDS
Method: (§1) Effect of CT-179 on protein kinase activity was evaluated using the Thermofisher Scientific SelectScreen Kinase Profiling Service. Over 400 human protein kinases were tested in the presence of 1 μM final concentration of CT-179 at an ATP concentration equal to the known ATP Km for each kinase. The experiment was done by Curtana Pharmaceuticals. Data is presented as percentage of inhibition of enzyme activity. Software CORAL was used to make the kinome tree, which is available from: http://phanstiel-lab.med.unc.edu/CORAL/.

[2] = molecular target: T2, Discoidin Domain Receptor Tyrosine Kinase 2 (DDR2) (Homo sapiens, UniProt Q16832); assay: Kinase profiling (KINOMEscan / SelectScreen), DDR2; type: biochemical; conditions: ATP equal to Km
T2 sequence (Q16832 22-855): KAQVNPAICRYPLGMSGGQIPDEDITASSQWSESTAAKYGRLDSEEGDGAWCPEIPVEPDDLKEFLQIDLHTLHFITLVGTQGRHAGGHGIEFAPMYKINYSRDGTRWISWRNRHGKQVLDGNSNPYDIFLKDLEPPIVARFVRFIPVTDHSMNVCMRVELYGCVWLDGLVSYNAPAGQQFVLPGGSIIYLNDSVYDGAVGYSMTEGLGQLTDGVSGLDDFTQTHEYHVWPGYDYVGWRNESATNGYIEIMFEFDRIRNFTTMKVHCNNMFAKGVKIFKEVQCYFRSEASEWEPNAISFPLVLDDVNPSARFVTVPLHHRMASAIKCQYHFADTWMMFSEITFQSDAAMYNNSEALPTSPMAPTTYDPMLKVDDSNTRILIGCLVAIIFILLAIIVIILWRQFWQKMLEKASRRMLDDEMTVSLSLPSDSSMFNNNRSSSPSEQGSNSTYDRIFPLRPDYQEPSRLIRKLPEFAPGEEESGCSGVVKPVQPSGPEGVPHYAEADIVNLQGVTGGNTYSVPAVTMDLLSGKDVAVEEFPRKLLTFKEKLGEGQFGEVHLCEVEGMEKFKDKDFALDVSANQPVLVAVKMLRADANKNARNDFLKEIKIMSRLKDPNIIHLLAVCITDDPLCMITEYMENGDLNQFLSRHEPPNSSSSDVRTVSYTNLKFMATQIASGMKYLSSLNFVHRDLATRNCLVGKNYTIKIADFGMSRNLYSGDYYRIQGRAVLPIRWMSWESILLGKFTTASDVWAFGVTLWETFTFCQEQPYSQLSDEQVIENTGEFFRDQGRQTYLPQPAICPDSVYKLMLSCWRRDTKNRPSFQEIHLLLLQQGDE
Method: as §1

Daoy MB cell line = assay: Cell viability, 7 days treatment, Daoy; type: cell-based; conditions: Homo sapiens, 168 h
Method: Cell proliferation was determined by a CellTiter 96® Non-Radioactive Cell Proliferation Assay (Promega) kit. Absorbance at 490 nm was measured on a Biotek PowerWave (Biotek, USA) plate scanner to obtain raw data. Average absorbance from triplicate wells were plotted against concentration using GraphPad Prism software v.7.0 (GraphPad software). At the indicated time points, cells were stained using FITC-conjugated Annexin V and Annexin V binding buffer (BD Pharmingen™) according to the manufacturer’s instructions. Annexin V or propidium iodide (PI)-positive cells were analyzed using a Fortessa 5 Flow Cytometer (Becton Dickinson) and data was analyzed using FlowJo® software (Tree Star).

[3] = tested on: OLIG2-driven transcription (human LHX8 promoter); assay: LHX8 promoter luciferase reporter assay in Daoy cells; type: cell-based; conditions: OLIG2 overexpression, 250 nM, 24 hours
Source text: Promoter region of human LHX8 was amplified by PCR from human genomic DNA extracted from Med-813luci cells with primers shown in STAR METHODS. The promoter region was inserted into the pGL3-Basic luciferase-reporter vector (Promega). Flag-OLIG2 were synthesised as a gBlock flanked by the Nhel and BamHI restriction enzyme sites (Integrated DNA Technologies, Singapore). The gBlock was restriction digested and ligated into the expression vector, pLEX_307 (a gift from Joseph Rosenbluh, Monash University, Australia) to form pLX307/FLAG-OLIG2. Firefly luciferase-reporter construct (300 ng, pGL3-Basic or pGL3-LHX8), pRL Renilla luciferase SV40 Control Reporter Vector (Promega, 50 ng), and pLX307/Flag-OLIG2 (300 ng) or pLX307/empty vector (300 ng) were reverse co-transfected with Daoy cells (1 × 10^5/well) in 24-well plates using Lipofectamine™ 3000 (Invitrogen). CT-179 (250 nM) was added and incubated for 24 hours. The luciferase activity was examined using Dual-Glo® Luciferase Assay System (Promega) according to the manufacturer’s instructions, and the signal was normalised to vector controls.

Cc1cc(NCCCN(C)C)nc(NC(=O)Nc2ccc(Cl)c(Cl)c2)n1 [CT-179]
inhibition at 1 µM [1]: 84% | inhibition at 1 µM [2]: 80% | IC50 (Daoy MB cell line): 144 nM | luciferase expression (LHX8 promoter reporter) [3]: significantly decreased
